Reference: ChEMBL document CHEMBL1201862, “PubChem BioAssay data set” (2004)
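All cell lines were grown in 96-well plates and treated with compound for 48 hours. GI50 marks 50% less growth.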 The source made the active and inactive calls. Cut-off read from the data, not from the text of the source: active = GI50 up to about 1.1 µM and inactive = higher.

Columns and labels:
Test in all cases: growth of human tumour cells (NCI), 48 h
SW-620 = test system: SW-620
NCI-H522 = test system: NCI-H522
NCI-H460 = test system: NCI-H460
ACHN = test system: ACHN
RXF 393 = test system: RXF 393
PC-3 = test system: PC-3
786-0 = test system: 786-0
HT-29 = test system: HT-29
HCC 2998 = test system: HCC 2998
U-251 = test system: U-251
Malme-3M = test system: Malme-3M
RPMI-8226 = test system: RPMI-8226
SF-295 = test system: SF-295
OVCAR-8 = test system: OVCAR-8
EKVX = test system: EKVX
T47D = test system: T47D
HOP-62 = test system: HOP-62
A549 = test system: A549
IGROV-1 = test system: IGROV-1
SNB-75 = test system: SNB-75
HCT-116 = test system: HCT-116
SK-MEL-2 = test system: SK-MEL-2
UO-31 = test system: UO-31
MDA-MB-231 = test system: MDA-MB-231
COLO 205 = test system: COLO 205
A498 = test system: A498
SK-OV-3 = test system: SK-OV-3
CAKI-1 = test system: CAKI-1
BT-549 = test system: BT-549
M14 = test system: M14
HOP-92 = test system: HOP-92
MOLT-4 = test system: MOLT-4
MCF7 = test system: MCF7
OVCAR-5 = test system: OVCAR-5
MDA-MB-435 = test system: MDA-MB-435
NCI/ADR-RES = test system: NCI/ADR-RES
CCRF-CEM = test system: CCRF-CEM
UACC-62 = test system: UACC-62
HCT-15 = test system: HCT-15
Hs-578T = test system: Hs-578T
SR = test system: SR
UACC-257 = test system: UACC-257
SF-539 = test system: SF-539
MDA-N = test system: MDA-N
SK-MEL-5 = test system: SK-MEL-5
NCI-H23 = test system: NCI-H23
OVCAR-4 = test system: OVCAR-4
SN12C = test system: SN12C
HL-60 = test system: HL-60
SK-MEL-28 = test system: SK-MEL-28
KM12 = test system: KM12
NCI-H226 = test system: NCI-H226
OVCAR-3 = test system: OVCAR-3
SF-268 = test system: SF-268
TK-10 = test system: TK-10
K562 = test system: K562
DU-145 = test system: DU-145
SNB-19 = test system: SNB-19

COC(=O)C(CCSc1ccccc1)C(=O)OC
GI50 (SW-620): > 100 µM (inactive)
GI50 (NCI-H522): 93.8 µM (inactive)
GI50 (NCI-H460): > 100 µM (inactive)
GI50 (ACHN): > 100 µM (inactive)
GI50 (RXF 393): > 100 µM (inactive)
GI50 (PC-3): > 100 µM (inactive)
GI50 (786-0): > 100 µM (inactive)
GI50 (HT-29): > 100 µM (inactive)
GI50 (HCC 2998): > 100 µM (inactive)
GI50 (U-251): > 100 µM (inactive)
GI50 (Malme-3M): 10.8 µM (inactive)
GI50 (RPMI-8226): > 100 µM (inactive)
GI50 (SF-295): > 100 µM (inactive)
GI50 (OVCAR-8): > 100 µM (inactive)
GI50 (EKVX): > 100 µM (inactive)
GI50 (T47D): > 100 µM (inactive)
GI50 (HOP-62): > 100 µM (inactive)
GI50 (A549): > 100 µM (inactive)
GI50 (IGROV-1): > 100 µM (inactive)
GI50 (SNB-75): > 100 µM (inactive)
GI50 (HCT-116): > 100 µM (inactive)
GI50 (SK-MEL-2): > 100 µM (inactive)
GI50 (UO-31): > 100 µM (inactive)
GI50 (MDA-MB-231): > 100 µM (inactive)
GI50 (COLO 205): > 100 µM (inactive)
GI50 (A498): > 100 µM (inactive)
GI50 (SK-OV-3): > 100 µM (inactive)
GI50 (CAKI-1): > 100 µM (inactive)
GI50 (BT-549): > 100 µM (inactive)
GI50 (M14): > 100 µM (inactive)
GI50 (HOP-92): > 100 µM (inactive)
GI50 (MOLT-4): > 100 µM (inactive)
GI50 (MCF7): > 100 µM (inactive)
GI50 (OVCAR-5): > 100 µM (inactive)
GI50 (MDA-MB-435): > 100 µM (inactive)
GI50 (NCI/ADR-RES): > 100 µM (inactive)
GI50 (CCRF-CEM): > 100 µM (inactive)
GI50 (UACC-62): > 100 µM (inactive)
GI50 (HCT-15): > 100 µM
GI50 (Hs-578T): 1.58 µM (inactive)
GI50 (SR): > 100 µM (inactive)
GI50 (UACC-257): > 100 µM (inactive)
GI50 (SF-539): > 100 µM (inactive)
GI50 (MDA-N): > 100 µM (inactive)
GI50 (SK-MEL-5): > 100 µM (inactive)
GI50 (NCI-H23): > 100 µM (inactive)
GI50 (OVCAR-4): > 100 µM (inactive)
GI50 (SN12C): > 100 µM (inactive)
GI50 (HL-60): 79.3 µM (inactive)
GI50 (SK-MEL-28): > 100 µM (inactive)
GI50 (KM12): > 100 µM (inactive)
GI50 (NCI-H226): > 100 µM (inactive)
GI50 (OVCAR-3): > 100 µM (inactive)

Cc1[nH]n(-c2nc(O)c(C)c(=O)[nH]2)c(=O)c1CCO
GI50 (SW-620): > 100 µM (inactive)
GI50 (NCI-H522): > 100 µM (inactive)
GI50 (NCI-H460): > 100 µM (inactive)
GI50 (ACHN): > 100 µM (inactive)
GI50 (RXF 393): 22.6 µM (inactive)
GI50 (PC-3): > 100 µM (inactive)
GI50 (786-0): > 100 µM (inactive)
GI50 (HT-29): > 100 µM (inactive)
GI50 (SF-268): > 100 µM (inactive)
GI50 (TK-10): > 100 µM (inactive)
GI50 (U-251): > 100 µM (inactive)
GI50 (Malme-3M): > 100 µM (inactive)
GI50 (RPMI-8226): > 100 µM (inactive)
GI50 (SF-295): > 100 µM (inactive)
GI50 (OVCAR-8): > 100 µM (inactive)
GI50 (EKVX): > 100 µM (inactive)
GI50 (T47D): > 100 µM (inactive)
GI50 (A549): > 100 µM (inactive)
GI50 (IGROV-1): > 100 µM (inactive)
GI50 (SNB-75): 45.6 µM (inactive)
GI50 (HCT-116): > 100 µM (inactive)
GI50 (SK-MEL-2): > 100 µM (inactive)
GI50 (UO-31): > 100 µM (inactive)
GI50 (MDA-MB-231): > 100 µM (inactive)
GI50 (COLO 205): > 100 µM (inactive)
GI50 (A498): > 100 µM (inactive)
GI50 (K562): > 100 µM (inactive)
GI50 (SK-OV-3): > 100 µM (inactive)
GI50 (CAKI-1): > 100 µM (inactive)
GI50 (BT-549): > 100 µM (inactive)
GI50 (M14): > 100 µM (inactive)
GI50 (HOP-92): > 100 µM (inactive)
GI50 (MOLT-4): > 100 µM (inactive)
GI50 (MCF7): > 100 µM (inactive)
GI50 (OVCAR-5): > 100 µM (inactive)
GI50 (MDA-MB-435): > 100 µM (inactive)
GI50 (CCRF-CEM): > 100 µM (inactive)
GI50 (UACC-62): > 100 µM (inactive)
GI50 (HCT-15): > 100 µM
GI50 (DU-145): > 100 µM (inactive)
GI50 (SNB-19): > 100 µM (inactive)
GI50 (Hs-578T): > 100 µM (inactive)
GI50 (UACC-257): > 100 µM (inactive)
GI50 (SF-539): > 100 µM (inactive)
GI50 (MDA-N): > 100 µM (inactive)
GI50 (SK-MEL-5): > 100 µM (inactive)
GI50 (NCI-H23): > 100 µM (inactive)
GI50 (OVCAR-4): > 100 µM (inactive)
GI50 (SN12C): > 100 µM (inactive)
GI50 (HL-60): > 100 µM (inactive)
GI50 (SK-MEL-28): > 100 µM (inactive)
GI50 (KM12): > 100 µM (inactive)
GI50 (NCI-H226): > 100 µM (inactive)
